According to patent publication US8729061B2, “Pyrrolidine derivatives” (Hoffmann-La Roche Inc., priority 2011, dated 2014):

Columns and labels:
Type in all cases: biochemical
human Cat K = human Cat K (Homo sapiens (Human), UniProt P43235); assay: Cathepsin enzyme inhibition assay (fluorogenic peptide substrate), Cat K; settings: enzyme 1 nM, substrate Z-Leu-Arg-AMC 20 μM, pH 6.5
Description: (§1) Enzyme activity is measured by observing the increase in fluorescence intensity caused by cleavage of a peptide substrate containing a fluorophore whose emission is quenched in the intact peptide.
(§2) Assay buffer: 100 mM potassium phosphate pH 6.5, EDTA-Na 5 mM, Triton X-100 0.001%, DTT 5 mM.
(§3) Enzymes (all at 1 nM): human and mouse Cathepsin S, Cat K, Cat B, Cat L. Substrate (20 μM): Z-Val-Val-Arg-AMC, except for Cat K which uses Z-Leu-Arg-AMC (both from Bachem).
(§4) Excitation 360 nm, Emission 465 nm.
(§5) Enzyme is added to the substance dilutions in 96-well microtitre plates and the reaction is started with substrate. […] IC50 are calculated by standard methods. Inhibition of human Cat S, mouse Cat S, human Cat K, mouse Cat K, human Cat B, mouse Cat B, human Cat L and mouse Cat L have been measured separately.

human Cat L = human Cat L (Homo sapiens (Human), UniProt P07711); assay: Cathepsin enzyme inhibition assay (fluorogenic peptide substrate), Cat L; settings: enzyme 1 nM, substrate Z-Val-Val-Arg-AMC 20 μM, pH 6.5
Chain of human Cat L (P07711 114-333): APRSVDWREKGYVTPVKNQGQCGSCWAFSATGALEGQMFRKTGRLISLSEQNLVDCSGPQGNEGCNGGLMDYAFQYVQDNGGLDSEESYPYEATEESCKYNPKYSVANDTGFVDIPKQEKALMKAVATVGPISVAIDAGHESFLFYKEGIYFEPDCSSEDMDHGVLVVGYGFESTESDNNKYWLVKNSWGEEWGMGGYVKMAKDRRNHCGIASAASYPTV
Description: as §1, §2, §3, §4, §5

human Cat B = human Cat B (Homo sapiens (Human), UniProt P07858); assay: Cathepsin enzyme inhibition assay (fluorogenic peptide substrate), Cat B; settings: enzyme 1 nM, substrate Z-Val-Val-Arg-AMC 20 μM, pH 6.5
Description: as §1, §2, §3, §4, §5

human Cathepsin S = human Cathepsin S (Homo sapiens (Human), UniProt P25774); assay: Cathepsin enzyme inhibition assay (fluorogenic peptide substrate), Cat S; settings: enzyme 1 nM, substrate Z-Val-Val-Arg-AMC 20 μM, pH 6.5
Chain of human Cathepsin S (P25774 115-331): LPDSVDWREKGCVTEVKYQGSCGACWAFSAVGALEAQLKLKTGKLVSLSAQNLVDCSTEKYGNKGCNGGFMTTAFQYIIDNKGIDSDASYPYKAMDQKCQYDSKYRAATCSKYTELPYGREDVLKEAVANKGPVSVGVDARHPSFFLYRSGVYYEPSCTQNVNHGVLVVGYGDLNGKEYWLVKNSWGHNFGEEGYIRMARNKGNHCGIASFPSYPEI
Description: as §1, §2, §3, §4, §5

Chain of human Cat K (P43235 115-329): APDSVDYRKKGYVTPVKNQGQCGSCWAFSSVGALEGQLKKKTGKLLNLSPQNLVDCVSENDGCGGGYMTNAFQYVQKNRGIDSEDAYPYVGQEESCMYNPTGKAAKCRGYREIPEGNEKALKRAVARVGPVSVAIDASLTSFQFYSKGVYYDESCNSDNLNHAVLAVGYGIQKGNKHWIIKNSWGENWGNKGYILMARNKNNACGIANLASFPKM

| Structure (SMILES) | IC50 (human Cat K) | IC50 (human Cat L) | IC50 (human Cat B) | IC50 (human Cathepsin S) |
| --- | --- | --- | --- | --- |
| CCCC(C)NC(=O)C(=O)[C@H](CC)NC(=O)[C@@H]1C[C@@H](S(=O)(=O)c2ccccc2Cl)CN1C(=O)C1(c2ccc(Cl)cc2)CC1 (stereo partly drawn) [Example 36, (2S,4R)-1-(1-(4-chlorophenyl)cyclopropanecarbonyl)-4-(2-chlorophenylsulfonyl)-N-((3S)-1,2-dioxo-1-(pentan-2-ylamino)pentan-3-yl)pyrrolidine-2-carboxamide] | 155 nM | 16.5 nM | 350 nM | 0.776 nM |
| CCC[C@H](NC(=O)[C@@H]1C[C@@H](S(=O)(=O)c2ccccc2Cl)CN1C(=O)C1(c2ccc(Cl)cc2)CC1)C(=O)C(=O)NCC(F)(F)F [Example 40, (2S,4R)-1-(1-(4-chlorophenyl)cyclopropanecarbonyl)-4-(2-chlorophenylsulfonyl)-N—((S)-1,2-dioxo-1-(2,2,2-trifluoroethylamino)hexan-3-yl)pyrrolidine-2-carboxamide] | 406 nM | 29.9 nM | 366 nM | 1.06 nM |
| CCC[C@H](NC(=O)[C@@H]1C[C@@H](S(=O)(=O)c2ccccc2Cl)CN1C(=O)C1(c2ccc(Cl)cc2)CC1)C(=O)C(=O)NC(C)C [Example 41, (2S,4R)-1-(1-(4-chlorophenyl)cyclopropanecarbonyl)-4-(2-chlorophenylsulfonyl)-N—((S)-1-(isopropylamino)-1,2-dioxohexan-3-yl)pyrrolidine-2-carboxamide] | 152 nM | 11.7 nM | 187 nM | 0.568 nM |
| CC[C@H](NC(=O)[C@@H]1C[C@@H](S(=O)(=O)c2ccc(O[C@@H](C)C(F)(F)F)cc2Cl)CN1C(=O)C1(c2ccc(Cl)cc2)CC1)C(=O)C(=O)NC1CC1 [Example 45, (2S,4R)-4-(2-chloro-4-((S)-1,1,1-trifluoropropan-2-yloxy)phenylsulfonyl)-1-(1-(4-chlorophenyl)cyclopropanecarbonyl)-N—((S)-1-(cyclopropylamino)-1,2-dioxopentan-3-yl)pyrrolidine-2-carboxamide] | 212 nM | 74.9 nM | 335 nM | 5.43 nM |
| CCC[C@H](NC(=O)[C@@H]1C[C@@H](S(=O)(=O)c2ccc(O[C@@H](C)C(F)(F)F)cc2Cl)CN1C(=O)C1(c2ccc(Cl)cc2)CC1)C(=O)C(=O)NC1CC1 [Example 46, (2S,4R)-4-(2-chloro-4-((S)-1,1,1-trifluoropropan-2-yloxy)phenylsulfonyl)-1-(1-(4-chlorophenyl)cyclopropanecarbonyl)-N—((S)-1-(cyclopropylamino)-1,2-dioxohexan-3-yl)pyrrolidine-2-carboxamide] | 251 nM | 67.1 nM | 224 nM | 5.98 nM |
| CCC[C@H](NC(=O)[C@@H]1C[C@@H](S(=O)(=O)c2ccccc2Cl)CN1C(=O)C1(c2ccc(Cl)cc2)CC1)C(=O)C(=O)N(C)C1CC1 [Example 47, (2S,4R)-1-(1-(4-chlorophenyl)cyclopropanecarbonyl)-4-(2-chlorophenylsulfonyl)-N—((S)-1-(cyclopropyl(methyl)amino)-1,2-dioxohexan-3-yl)pyrrolidine-2-carboxamide] | 998 nM | 283 nM | 1540 nM | 22.3 nM |
| CC[C@H](NC(=O)[C@@H]1C[C@@H](S(=O)(=O)c2ccccc2Cl)CN1C(=O)C1(c2ccc(Cl)cc2)CC1)C(=O)C(=O)NCCc1cccc2ccccc12 [Example 50, (2S,4R)-1-(1-(4-chlorophenyl)cyclopropanecarbonyl)-4-(2-chlorophenylsulfonyl)-N—((S)-1-(2-(naphthalen-1-yl)ethylamino)-1,2-dioxopentan-3-yl)pyrrolidine-2-carboxamide] | 119 nM | 8.6 nM | 68.8 nM | 2.76 nM |
| CC[C@H](NC(=O)[C@@H]1C[C@@H](S(=O)(=O)c2ccccc2Cl)CN1C(=O)C1(c2ccc(Cl)cc2)CC1)C(=O)C(=O)NCCc1ccc2ccccc2c1 [Example 51, (2S,4R)-1-(1-(4-chlorophenyl)cyclopropanecarbonyl)-4-(2-chlorophenylsulfonyl)-N—((S)-1-(2-(naphthalen-2-yl)ethylamino)-1,2-dioxopentan-3-yl)pyrrolidine-2-carboxamide] | 159 nM | 13 nM | 172 nM | 3.08 nM |
| CC[C@H](NC(=O)[C@@H]1C[C@@H](S(=O)(=O)c2ccccc2Cl)CN1C(=O)C1(c2ccc(Cl)cc2)CC1)C(=O)C(=O)NCc1cccc2ccccc12 [Example 52, (2S,4R)-1-(1-(4-chlorophenyl)cyclopropanecarbonyl)-4-(2-chlorophenylsulfonyl)-N—((S)-1-(naphthalen-1-ylmethylamino)-1,2-dioxopentan-3-yl)pyrrolidine-2-carboxamide] | 317 nM | 9.4 nM | 386 nM | 1.96 nM |

Now those with a lower IC50 (human Cat K), led by results:

| IC50 (human Cat K) | IC50 (human Cat L) | IC50 (human Cat B) | IC50 (human Cathepsin S) | Structure (SMILES) |
| --- | --- | --- | --- | --- |
| 107 nM | 15.1 nM | 246 nM | 1.02 nM | CCCC(C)NC(=O)C(=O)[C@H](CCC)NC(=O)[C@@H]1C[C@@H](S(=O)(=O)c2ccccc2Cl)CN1C(=O)C1(c2ccc(Cl)cc2)CC1 (stereo partly drawn) [Example 37, (2S,4R)-1-(1-(4-chlorophenyl)cyclopropanecarbonyl)-4-(2-chlorophenylsulfonyl)-N-((3S)-1,2-dioxo-1-(pentan-2-ylamino)hexan-3-yl)pyrrolidine-2-carboxamide] |
| 91.8 nM | 13.6 nM | 108 nM | 0.779 nM | CCC[C@H](NC(=O)[C@@H]1C[C@@H](S(=O)(=O)c2ccccc2Cl)CN1C(=O)C1(c2ccc(Cl)cc2)CC1)C(=O)C(=O)NCC [Example 44, (2S,4R)-1-(1-(4-chlorophenyl)cyclopropanecarbonyl)-4-(2-chlorophenylsulfonyl)-N—((S)-1-(ethylamino)-1,2-dioxohexan-3-yl)pyrrolidine-2-carboxamide] |
| 82 nM | 2.6 nM | 85.4 nM | 0.63 nM | CC[C@H](NC(=O)[C@@H]1C[C@@H](S(=O)(=O)c2ccccc2Cl)CN1C(=O)C1(c2ccc(Cl)cc2)CC1)C(=O)C(=O)NCCOC [Example 54, (2S,4R)-1-(1-(4-chlorophenyl)cyclopropanecarbonyl)-4-(2-chlorophenylsulfonyl)-N—((S)-1-(2-methoxyethylamino)-1,2-dioxopentan-3-yl)pyrrolidine-2-carboxamide] |
| 63.6 nM | 11.4 nM | 140 nM | 0.558 nM | CC[C@H](NC(=O)[C@@H]1C[C@@H](S(=O)(=O)c2ccc(F)cc2Cl)CN1C(=O)C1(c2ccc(Cl)cc2)CC1)C(=O)C(=O)NC1CC1 [Example 39, (2S,4R)-4-(2-chloro-4-fluorophenylsulfonyl)-1-(1-(4-chlorophenyl)cyclopropanecarbonyl)-N—((S)-1-(cyclopropylamino)-1,2-dioxopentan-3-yl)pyrrolidine-2-carboxamide] |
| 53.3 nM | 10.6 nM | 154 nM | 0.34 nM | CC[C@H](NC(=O)[C@@H]1C[C@@H](S(=O)(=O)c2ccc(Cl)cc2Cl)CN1C(=O)C1(c2ccc(Cl)cc2)CC1)C(=O)C(=O)NC1CC1 [Example 38, (2S,4R)-1-(1-(4-chlorophenyl)cyclopropanecarbonyl)-N—((S)-1-(cyclopropylamino)-1,2-dioxopentan-3-yl)-4-(2,4-dichlorophenylsulfonyl)pyrrolidine-2-carboxamide] |
| 39.3 nM | 1.7 nM | 188 nM | 0.676 nM | CC[C@H](NC(=O)[C@@H]1C[C@@H](S(=O)(=O)c2ccccc2Cl)CN1C(=O)C1(c2ccc(Cl)cc2)CC1)C(=O)C(=O)NC1CCOCC1 [Example 53, (2S,4R)-1-(1-(4-chlorophenyl)cyclopropanecarbonyl)-4-(2-chlorophenylsulfonyl)-N—((S)-1,2-dioxo-1-(tetrahydro-2H-pyran-4-ylamino)pentan-3-yl)pyrrolidine-2-carboxamide] |
| 35 nM | 9.4 nM | 83.2 nM | 0.527 nM | CCC[C@H](NC(=O)[C@@H]1C[C@@H](S(=O)(=O)c2ccc(F)cc2Cl)CN1C(=O)C1(c2ccc(Cl)cc2)CC1)C(=O)C(=O)NC1CC1 [Example 48, (2S,4R)-4-(2-chloro-4-fluorophenylsulfonyl)-1-(1-(4-chlorophenyl)cyclopropanecarbonyl)-N—((S)-1-(cyclopropylamino)-1,2-dioxohexan-3-yl)pyrrolidine-2-carboxamide] |
| 34.4 nM | 2 nM | 30.2 nM | 0.901 nM | CC[C@H](NC(=O)[C@@H]1C[C@@H](S(=O)(=O)c2ccccc2Cl)CN1C(=O)C1(c2ccc(Cl)cc2)CC1)C(=O)C(=O)NCCc1ccccc1 [Example 49, (2S,4R)-1-(1-(4-chlorophenyl)cyclopropanecarbonyl)-4-(2-chlorophenylsulfonyl)-N—((S)-1,2-dioxo-1-(phenethylamino)pentan-3-yl)pyrrolidine-2-carboxamide] |
| 21.5 nM | 9.8 nM | 31 nM | 1.21 nM | CCC[C@H](NC(=O)[C@@H]1C[C@@H](S(=O)(=O)c2ccccc2Cl)CN1C(=O)C1(c2ccc(Cl)cc2)CC1)C(=O)C(=O)NCc1ccccc1 [Example 35, (2S,4R)—N—((S)-1-(benzylamino)-1,2-dioxohexan-3-yl)-1-(1-(4-chlorophenyl)cyclopropanecarbonyl)-4-(2-chlorophenylsulfonyl)pyrrolidine-2-carboxamide] |
